Entries after “also recorded” stand apart in the source; their conditions may differ.
Assays:
Format in all cases: in vivo, mouse
control and CLP mice [1] = assay: Novel Object Location test (NOL); conditions: F(1,29)=0.0007, p=0.98; day 20
Protocol: (§1) Data shown are mean values (±SD). Gray bars represent MnTBAP-treated mice from either CLP or control groups, and black bars represent placebo-treated mice from either CLP or Control groups. Two-way analyses of variance (ANOVAs) (CLP vs Control×MnTBAP vs Placebo) were performed. When a significant interaction was observed, planned comparisons were performed for the CLP/Placebo group against the three other groups. The significance of the planned comparisons is indicated with asterisks (*p<0.05, **p<0.01, ***p<0.001, ****p<0.0001).
(§2) MnTBAP is commercially available: it is for example manufactured by Sigma-Aldrich, Calbiochem, etc. For use it is dissolved following the guidance provided by the manufacturer.
(§3) Twice a week after the CLP, survival mice were gently handled for at least four 5-min sessions to habituate to the experimenter. Then, 20 and 21 days after CLP, mice were submitted to the novel object location (NOL) and novel object recognition (NOR) tests. […]
(§4) The familiarization sessions consisted on 10 min of free exploration of two identical objects, placed inside the same open field arena that the mice had visited on the previous day. […] Then, the percentage of exploration of the new object was calculated, reflecting the retention of the familiar object memory at long-term (24 h). […]

brain = assay: Brain ROS/RNS, antioxidant defense and bioenergetic/mitochondrial parameters at 21 days
Description: (b) Levels of the central bioenergetic metabolite Acetyl-CoA expressed in nmol/g. Expression of genes coding for PGC-lalpha quantified by RT-qPCR from RNA isolated from brains extracted from control and CLP mice with or without MnTBAP.
as §1, with “CLPI/Placebo” for “CLP/Placebo”, “****p<0.0001) .” for “****p<0.0001).”
as §2
Total RNA was isolated from cells using the RNAeasy Micro kit (Qiagen), and reverse-transcribed using Superscript® III Reverse transcriptase (Invitrogen). Real-time quantitative PCR was performed in duplicate for each sample using Power Sybr Green PCR Master Mix (Applied Biosystems) and the rate of dye incorporation was monitored using the StepOne™ Plus RealTime PCR system (Applied Biosystems). Data were analyzed by StepOne Plus RT PCR software v2.1 and Microsoft excel. Amplification specificity was assessed with a melting curve analysis. TBP transcript levels were used for normalisation of each target (=ΔCT). Real-time PCR CT values were analyzed using the 2^−(ΔCt) method to calculate the fold expression (Schmittgen et al., 2008). The data are presented as relative mRNA units with respect to control group (expressed as fold over control value). Primer sequences available upon request.
Microglial cells and brain samples were resuspended in lysis buffer (50 mM TrisHCI pH 7.5, 150 mM NaCl, 1% Triton X-100, 0.1% SDS, 1 mM EDTA, and protease inhibitor mixture), mechanically homogenized with a piston, briefly vortexed and incubated for 30 min at 4° C. Lysed samples were briefly centrifuged to remove debris, and the whole supernatant extract was collected. Aliquots of the supernatant were immediately used for the assessment of ROS level, RNS level, dual ROS/RNS level, SOD activity, and Acetyl-Coa level. The protein content was determined with the Bradford reagent (Sigma-Aldrich).
Both ROS and RNS were measured by incubating CellROX (Life Technologies) with 30 μg of freshly extracted total proteins for 45 min at 37° C. in the dark in 96-wells plate in triplicate. Fluorescence intensity was measured using near-infra-red fluorescence setting with the plate reader Odyssey Infrared Imaging system scanner and Odyssey application software v3.0 (LI-COR Biosciences, Lincoln, NE).
SOD activity was measured with Superoxide Dismutase Activity Colorimetric Assay kit (Abcam, ab65354), following the manufacturer's instructions. This measurement assesses SOD-dependent inhibition of superoxide anion reduction. Tests were performed with 30 μg of freshly extracted total proteins, quantified by Bradford assay, or with 10 μl of serum, in triplicate.
Total DNA was prepared using extraction buffer (0.2 mg ml^−1 proteinase K, 0.2% SDS and 5 mM EDTA in PBS) and incubated at 50° C. for 3 h. DNA was precipitated with 3 M sodium acetate (pH 5.2) and isopropanol for 20 min on ice before centrifugation at 8,000 g at 4° C. The DNA pellet was washed and briefly air-dried. qPCR amplification was performed on total DNA using the StepOne Plus RealTime PCR system (Applied Biosystems) and Power Sybr Green PCR Master mix (ABI) following the manufacturer's instruction. A fragment of mitochondrial COI gene, the established marker for mtDNA content in mouse cells, was amplified using the nuclear encoded Ndufv1 gene as endogenous reference. […]

control and CLP mice [2] = assay: Novel Object Recognition test (NOR); conditions: septic (CLP) mice, systemic MnTBAP treatment
Protocol: as §1, §2, §3, §4

[3] = CLP mice + MnTBAP, 21 days after sepsis
[4] = CLP mice + MnTBAP, 21 days after sepsis, remained different from Control-Placebo
[5] = MnTBAP in control mice vs Control-placebo mice
[6] = MnTBAP in control mice vs Control-placebo mice, p<0.0001

## O=C(O)c1ccc(/C2=C3\C=CC(=N3)/C(c3ccc(C(=O)O)cc3)=c3/cc/c4[n]3[Mn]([Cl])[n]3c2ccc3/C(c2ccc(C(=O)O)cc2)=C2/C=CC(=N2)\C=4c2ccc(C(=O)O)cc2)cc1 [MnTBAP, Manganese (III) tetrakis (4-benzoic acid)porphyrin chloride]
Control and CLP mice [1]
  NOL exploration time, CLP vs control×MnTBAP vs placebo interaction: no significant CLP vs control×MnTBAP vs placebo interaction
brain; [3]
  brain acetyl-coA levels: strongly decreased
  brain mtRNA 16S levels: strongly decreased
brain; [4]
  brain ATP production: significantly increasing
  brain ROS/RNS levels: significantly increasing
  brain SOD1 expression: significantly increasing
  brain SOD activity levels: significantly increasing
brain; CLP mice, 21 days after sepsis
  sepsis-induced brain alterations: counteracted
brain; [5]
  brain PGC1 alpha expression: did not affect
  brain acetyl-coA levels: did not affect
  brain catalase expression: did not affect
brain; [6]
  brain ATP production: increase
  brain NRF2 expression: increase
  brain SOD1 expression: increase
  brain SOD2 expression: increase
  brain SOD activity: increase
  brain mtDNA content: increase
brain; MnTBAP in control mice vs Control-placebo mice, p=0.0005
  brain mtRNA 16S level: increase
brain; MnTBAP in control mice vs Control-placebo mice, p=0.001
  brain ROS/RNS levels: increase
brain; MnTBAP in control mice vs Control-placebo mice, p=0.04
  brain mtRNA CytB level: increase
Control and CLP mice [2]
  cognition / long-term cognitive function: restored cognition; also recorded: successfully restores long-term cognitive function
